Data: patent US20090105349A1, “ANDROGEN MODULATORS” (WARNER-LAMBERT COMPANY LLC, priority 2004, published 2009)
Read-outs that look alike come from different tables or passages of the source.

Molecular target: T1, hAR (human androgen receptor) (Homo sapiens, UniProt P10275)
T1 construct: made in house; host or cells: baculovirus/Sf9 insect cells (crude extract)
T1 sequence (P10275 1-920): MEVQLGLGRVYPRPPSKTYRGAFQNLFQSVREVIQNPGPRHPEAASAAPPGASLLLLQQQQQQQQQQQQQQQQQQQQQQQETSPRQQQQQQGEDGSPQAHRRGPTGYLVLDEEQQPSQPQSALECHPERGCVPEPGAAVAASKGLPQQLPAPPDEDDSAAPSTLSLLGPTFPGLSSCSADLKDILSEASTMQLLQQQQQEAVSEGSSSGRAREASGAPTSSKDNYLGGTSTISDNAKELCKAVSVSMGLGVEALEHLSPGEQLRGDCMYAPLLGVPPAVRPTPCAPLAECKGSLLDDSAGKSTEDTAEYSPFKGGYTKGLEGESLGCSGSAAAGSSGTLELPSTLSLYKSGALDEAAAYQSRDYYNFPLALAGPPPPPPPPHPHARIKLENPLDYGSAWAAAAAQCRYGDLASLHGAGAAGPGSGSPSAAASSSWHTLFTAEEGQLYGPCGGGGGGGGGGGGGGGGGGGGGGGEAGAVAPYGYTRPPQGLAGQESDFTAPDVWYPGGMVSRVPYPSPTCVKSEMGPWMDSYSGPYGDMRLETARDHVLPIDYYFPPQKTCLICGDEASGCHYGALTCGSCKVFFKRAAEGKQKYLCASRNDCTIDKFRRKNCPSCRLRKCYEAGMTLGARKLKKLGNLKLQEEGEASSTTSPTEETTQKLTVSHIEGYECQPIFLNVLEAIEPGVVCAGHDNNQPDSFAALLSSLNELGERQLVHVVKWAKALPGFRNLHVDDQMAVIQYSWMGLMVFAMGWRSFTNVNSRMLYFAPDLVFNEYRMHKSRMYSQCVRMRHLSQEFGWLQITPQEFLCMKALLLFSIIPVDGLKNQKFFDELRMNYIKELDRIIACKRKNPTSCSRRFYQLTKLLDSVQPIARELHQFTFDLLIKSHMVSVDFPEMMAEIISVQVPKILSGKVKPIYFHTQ
Assay: Competitive hAR binding assay with 3H-DHT tracer
Protocol: The description below describes how the assay was carried out.
Competitive binding analysis was performed on baculovirus/Sf9 generated hAR extracts in the presence or absence of different concentrations of test agent and a fixed concentration of ^3H-dihydrotestosterone (3H-DHT) as tracer. […] Subsequently, the binding reactions are washed three times to completely remove excess unbound ^3H-DHT. hAR bound ^3H-DHT levels are determined in the presence of compounds (i.e. competitive binding) and compared to levels bound when no competitor is present (i.e. maximum binding). Compound binding affinity to the hAR is expressed as the concentration of compound at which one half of the maximum binding is inhibited.

[1] = baculovirus/Sf9 hAR extract, 1 nM 3H-DHT, one hour at 4° C, mean of multiple tests, read-out: AR Binding IC50

Structure (SMILES)	IC50 [1] [nM]	IC50 [nM]
CCSc1ccccc1Oc1ccc(C#N)cc1Cl [Example 1, 3-Chloro-4-(2-ethylsulfanyl-phenoxy)-benzonitrile]	281	–
N#Cc1ccc(Oc2ccccc2[N+](=O)[O-])c(Cl)c1 [Example 2, 3-Chloro-4-(2-nitro-phenoxy)-benzonitrile]	472	–
Cc1ccc(F)c(Oc2ccc(C#N)cc2Cl)c1F [Example 6, 3-Chloro-(2,6-difluro-5-methyl-phenoxy)benzonitrile]	–	59
Cc1ccc(C)c(Oc2ccc(C#N)cc2Cl)c1 [Example 9, 3-Chloro-4-(2,5-dimethyl-phenoxy)-benzonitrile]	356	–
C=CCc1cccc(C)c1Oc1ccc(C#N)cc1Cl [Example 11, 4-(2-Allyl-6-methyl-phenoxy)-3-chloro-benzonitrile]	242	–
Cc1ccc(C(C)C)c(Oc2ccc(C#N)cc2Cl)c1 [Example 14, 3-Chloro-4-(2-isopropyl-5-methyl-phenoxy)-benzonitrile]	375	–
CCN(CC)C(=O)c1ccccc1Oc1ccc(C#N)cc1Cl [Example 18, 2-(2-Chloro-4-cyano-phenoxy)-N,N-diethyl-benzamide]	402	–
Cc1ccc(Oc2ccc(C#N)cc2Cl)c(C)c1 [Example 21, 3-Chloro-4-(2,4-dimethyl-phenoxy)-benzonitrile]	263	–
COc1ccc(C)cc1Oc1ccc(C#N)cc1Cl [Example 22, 3-Chloro-4-(2-methoxy-5-methyl-phenoxy)-benzonitrile]	491	–
Cc1cccc(Oc2ccc(C#N)cc2Cl)c1 [Example 28, 3-Chloro-4-m-tolyloxy-benzonitrile]	412	–
N#Cc1ccc(Oc2ccc3c(c2)CCC3)cc1Cl [Example 43, 2-Chloro-4-(indan-5-yloxy)-benzonitrile]	439	–
CCOC(=O)c1ccc(Oc2ccc(C#N)c(Cl)c2)c(OC)c1 [Example 55, 4-(3-Chloro-4-cyano-phenoxy)-3-methoxy-benzoic acid ethyl ester]	300	–
Cc1ccc(-c2ccc(Oc3ccc(C#N)c(Cl)c3)c(C)c2)cc1 [Example 58, 2-Chloro-4-(3,4′-dimethyl-biphenyl-4-yloxy)-benzonitrile]	436	–
Cc1ccc(Oc2ccc(C#N)c(Cl)c2)c(Cc2ccccc2)c1 [Example 62, 4-(2-Benzyl-4-methyl-phenoxy)-2-chloro-benzonitrile]	326	–
CCOc1ccccc1Oc1ccc(C#N)c(Cl)c1 [Example 70, 2-Chloro-4-(2-ethoxy-phenoxy)-benzonitrile]	–	19
CCOc1ccccc1Oc1ccc(C#N)cc1Cl [Example 71, 3-Chloro-4-(2-ethoxy-phenoxy)-benzonitrile]	299	–
N#Cc1ccc(Oc2cccc3ccccc23)c(Cl)c1 [Example 72, 3-Chloro-4-(naphthalen-1-yloxy)-benzonitrile]	478	–
Cc1ccc(Oc2ccc(C#N)c(Cl)c2)c(C(C)(C)C)c1 [Example 73, 4-(2-tert-Butyl-4-methyl-phenoxy)-2-chloro-benzonitrile]	253	–
COc1cc(C(C)=O)ccc1Oc1ccc(C#N)c(C(F)(F)F)c1 [Example 74, 4-(4-Acetyl-2-methoxy-phenoxy)-2-trifluoromethyl-benzonitrile]	1480	–
CC(=O)c1ccc(Oc2ccc(C#N)c(C(F)(F)F)c2)cc1 [Example 75, 4-(4-Acetyl-phenoxy)-2-trifluoromethyl-benzonitrile]	443	–
N#Cc1ccc(Oc2ccccc2[N+](=O)[O-])cc1C(F)(F)F [Example 77, 4-(2-Nitro-phenoxy)-2-trifluoromethyl-benzonitrile]	458	–
CCN(CC)Cc1c(C)ccc(C)c1Oc1ccc(C#N)c(C(F)(F)F)c1 [Example 89, 4-(2-Diethylaminomethyl-3,6-dimethyl-phenoxy)-2-trifluoromethyl-benzonitrile]	255	–
N#Cc1ccc(Oc2ccccc2OCc2ccccc2)cc1C(F)(F)F [Example 92, 4-(2-Benzyloxy-phenoxy)-2-trifluoromethyl-benzonitrile]	361	–
N#Cc1ccccc1Oc1ccc(C#N)c(C(F)(F)F)c1 [Example 112, 4-(2-Cyano-phenoxy)-2-trifluoromethyl-benzonitrile]	315	–
C[C@H](O)CNC(=O)c1ccccc1Oc1ccc(C#N)c(C(F)(F)F)c1 [Example 113, 2-(4-Cyano-3-trifluoromethyl-phenoxy)-N-(2-hydroxy-propyl)-benzamide]	353	–
CC(C)(CO)CNC(=O)c1ccccc1Oc1ccc(C#N)c(C(F)(F)F)c1 [Example 114, 2-(4-Cyano-3-trifluoromethyl-phenoxy)-N-(3-hydroxy-2,2-dimethyl-propyl)-benzamide]	402	–
CC(N)c1cc(F)ccc1Oc1ccc(C#N)c(C(F)(F)F)c1 (stereo not drawn) [Example 122, 4-[2-(1-aminoethyl)-4-fluoro-phenoxy]-2-trifluoromethyl-benzonitrile]	–	2
